Values quoted from earlier work, collected in US9089619B2, “Hybrid nanocrystals for treatment and bioimaging of disease” (University of Kentucky, priority 2005, dated 2015).

Conditions: water at 25° C.

## Nc1nc2ncc(CNc3ccc(C(=O)N[C@@H](CCC(=O)O)C(=O)O)cc3)nc2c(=O)[nH]1 [Folic acid]
  solubility in water: about 1.6 μg/ml
